In patent US20140315789A1, “ANTIMICROBIAL PEPTIDES AND USES THEREOF” (NEWSOUTH INNOVATIONS PTY LIMITED, priority 2011, published 2014):

How the values were obtained:
[1] = tested on: Pseudomonas aeruginosa PA01; assay: Bacterial adhesion to peptide-coated glass surfaces, LIVE/DEAD fluorescence microscopy; format: cell-based; conditions: P. aeruginosa; for total surface coverage of bacteria / proportion of non-viable cells to total bacteria present / reduction of total surface coverage compared to BLK: peptide attached to maleimide-functionalised glass; for total surface coverage of bacteria: 48 hours incubation, BLK over 21.7%; for proportion of non-viable cells to total bacteria present: BLK 5.8%; for reduction of total surface coverage compared to BLK: versus blank glass
Description: (§1) Bacterial strains (Staphylococcus aureus strain 38 or Pseudomonas aeruginosa PA01) were streaked onto Chocolate agar (Oxoid, UK) and incubated overnight at 37° C. A single colony was cultured in 10 ml of tryptone soya broth (TSB) (Oxoid, UK) overnight to log phase at 37° C. Optical density of the resulting culture was adjusted to OD660 of 0.1 (corresponding to 1×10^8 cfu/ml) in TSB media (0.25% w/v glucose). Bacterial numbers were confirmed by a retrospective viable count.
(§2) Glass surfaces were placed in 4 ml of the above culture and incubated at 37° C. with shaking at 60 rpm for 24 hours, then the media was replaced with fresh TSB (4 ml) and incubated for a further 24 hours (total of 48 hours). The samples were then washed with PBS before examination by fluorescent staining
(§3) Glass samples with adherent bacteria prepared as described above were stained with LIVE/DEAD BacLight Bacterial Viability Kit (Molecular Probes, Inc., OR, USA) according to the manufacturer's directions as described by others for the analysis of biofilms at surfaces (Kirov, Barraud). Microscopic observation and image acquisition was performed with Olympus FV1000 Confocal Inverted Microscope. Images obtained from 10 representative areas on each of triplicate samples for each surface were analysed using Image software (Abramoff et al.); Biophotonics International. 2004, 11(7), pp 36-42 and Rasband et al. Image). Bethesda Md., USA, U.S. National Institutes of Health, 1997 ? 2011, available from http://imagej.hih.gov.au/ij/). The image analysis results were measured as the average area of live cells and the average area of dead cells per field of view and are reported as the average percentage coverage. Prior to comparing the groups, equality of variances was tested using Levene's test. Unequal variances were adjusted by transforming the data using square root transformation. Differences between the groups were analysed using linear mixed model ANOVA, which adjusts the correlation due to repeated observations. Post hoc multiple comparisons were done using Dunnett T3 comparison. Statistical significance was set at 5%.
(§4) The adhesion of Pseudomonas aeruginosa and Staphylococcus aureus to the modified surfaces was evaluated using fluorescence microscopy. The images obtained were analysed using ImageJ software (Abramoff et al. J. Biophotonics International. 2004, 11(7), pp 36-42 and Rasband et al. ImageJ. Bethesda Md., USA, U.S. National Institutes of Health, 1997-2011, available from http://imagej.hih.gov.au/ij/). The areas of the surfaces covered by bacteria and the relative proportions of bacteria with intact and damaged membranes for each surface were examined by image analysis and the results are shown in FIG. 4.

[2] = tested on: Staphylococcus aureus strain 38; assay: as above; format: cell-based; conditions: S. aureus; for total surface coverage of bacteria / proportion of non-viable bacteria / reduction in total bacteria compared with BLK: peptide attached to maleimide-functionalised glass; for total surface coverage of bacteria: 48 hours incubation, controls more than 16%; for proportion of non-viable bacteria: BLK 2.2%; for reduction in total bacteria compared with BLK: versus blank glass
Description: as §1, §2, §3, §4

[3] = surface-attached, fold versus CysC

Sequence | total surface coverage of bacteria [1] [%] | proportion of non-viable cells to total bacteria present [1] | reduction of total surface coverage compared to BLK [1] [%] | total surface coverage of bacteria [2] [%] | proportion of non-viable bacteria [2] | reduction in total bacteria compared with BLK [2] [%] | effectiveness in reducing total surface coverage relative to CysC [1, 3] | nonviable cells (stained red) relative to CysC [1, 3] [times] | effectiveness in reducing total surface coverage relative to CysC [2, 3] | nonviable cells (stained red) relative to CysC [2, 3]
TLISWIKNKRKQRPRVSRRRRRRGGRRRRC [CysC, melimine wherein an extra cysteine residue has been added to the C-terminus] | 11.3 | not statistically different to the controls | 47.7 | 11.8 | not different to the control | – | – | – | – | –
TLISWIKNKRKQCRPRVSRRRRRRGGRRRR [Cys13, melimine wherein an extra cysteine residue has been added to position 13] | 7.1 | 30.1% | 67.4 | 6.3 | 9.8% | 64.1 | – | – | – | –
CTLISWIKNKRKQRPRVSRRRRRRGGRRRR [CysN, melimine wherein an extra cysteine residue has been added to the N-terminus] | 6.6 | 40.6% | 69.4 | 3.0 | 13.0% | 82.7 | approximately 2 times | ~3 | approximately 4 times | approximately 8 times
